Type in all cases: cell-based
What all share (conditions): CreLuc reporter gene assay

One experiment concerns the target T1, hNPY2R (Homo sapiens, UniProt P49146).
T1 construct: expressed in transfected cells; host or cells: HEK-293 cells carrying a CRE-luciferase reporter gene
T1 sequence (P49146 1-381): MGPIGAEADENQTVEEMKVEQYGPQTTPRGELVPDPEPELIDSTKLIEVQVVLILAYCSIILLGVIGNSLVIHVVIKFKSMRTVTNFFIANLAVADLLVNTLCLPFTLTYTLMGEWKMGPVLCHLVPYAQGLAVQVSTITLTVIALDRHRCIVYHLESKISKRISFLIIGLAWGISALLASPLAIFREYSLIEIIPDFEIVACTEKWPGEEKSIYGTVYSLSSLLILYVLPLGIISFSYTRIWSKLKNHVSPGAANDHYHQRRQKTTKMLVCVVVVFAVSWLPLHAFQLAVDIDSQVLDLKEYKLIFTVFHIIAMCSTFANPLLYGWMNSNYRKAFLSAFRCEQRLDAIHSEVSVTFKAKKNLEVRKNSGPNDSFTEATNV
As to the kind of experiment: hNPY2R CreLuc reporter gene assay in 0.5% and 100% plasma. The procedure, abridged: (§1)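 HEK-293 cells co-expressing GLP-1 or NPY2 receptor and CHO cells expressing GIP receptor, each carrying a CRE-driven luciferase reporter, were stimulated with peptides for 4 hours at 37 °C. Luminescence was read after Bright-Glo addition. EC50 came from 8-point, four-decade curves fitted by variable-slope non-linear regression.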

A further experiment has as its target T2, hGLP1R (Homo sapiens, UniProt P43220).
T2 construct: expressed in transfected cells; host or cells: HEK-293 cells carrying a CRE-luciferase reporter gene
As to the kind of experiment: hGLP1R CreLuc reporter gene assay in 0.5% and 100% plasma. The procedure, abridged:
as §1

A further experiment concerns the target T3, hGIPR (Homo sapiens, UniProt P48546).
T3 construct: expressed in transfected cells; host or cells: CHO cells carrying a CRE-luciferase reporter gene
T3 sequence (P48546 22-466): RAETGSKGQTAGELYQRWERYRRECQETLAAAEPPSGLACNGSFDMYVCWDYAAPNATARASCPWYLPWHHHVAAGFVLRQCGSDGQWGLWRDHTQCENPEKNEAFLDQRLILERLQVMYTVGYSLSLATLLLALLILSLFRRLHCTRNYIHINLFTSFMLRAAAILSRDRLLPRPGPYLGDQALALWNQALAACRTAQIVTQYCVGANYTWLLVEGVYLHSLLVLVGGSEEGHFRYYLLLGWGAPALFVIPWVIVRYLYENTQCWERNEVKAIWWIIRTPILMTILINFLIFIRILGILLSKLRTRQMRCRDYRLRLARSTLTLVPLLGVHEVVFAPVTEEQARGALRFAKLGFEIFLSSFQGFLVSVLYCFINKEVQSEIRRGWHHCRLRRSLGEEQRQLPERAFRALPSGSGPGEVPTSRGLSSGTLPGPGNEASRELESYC
As to the kind of experiment: hGIPR CreLuc reporter gene assay in 0.5% and 100% plasma. The procedure, abridged:
as §1

Where [1] appears, read: 0.5% human plasma, read-out: hNPY2R 0.5% hP.
[2] abbreviates: 0.5% human plasma, read-out: hGLP1R 0.5% hP.
Setting [3] is: 100% human plasma, read-out: hGLP1R 100% hP.
[4] abbreviates: 0.5% human plasma, read-out: hGIPR 0.5% hP.
The mark [5] stands for this setting: 100% human plasma, read-out: hGIPR 100% hP.
Setting [6] is: 100% human plasma, read-out: hNPY2R 100% hP.

Where two headings read alike, the source gives them in different places. Starred links: 1 amine or outer side, 2 acyl side, 3 side chain; linkers in the order of their positions; H or OH if unused. Non-standard residues stand in square brackets, D forms with d. Groups on a side chain read outwards from the residue. *: point of attachment. C20 diacid = O=C(O)CCCCCCCCCCCCCCCCCCC(=O)*; C18 diacid = O=C(O)CCCCCCCCCCCCCCCCC(=O)*; γGlu = O=C(O)[C@H](CCC(=O)[*:2])N[*:1]; εLys = N[C@@H](CCCCN[*:1])C(=O)[*:2]; NMeR = CN[C@@H](CCCNC(=N)N)C(=O)O; hArg = N=C(N)NCCCC[C@H](N)C(=O)O; AEEA = NCCOCCOCC(=O)O; Aib = CC(C)(N)C(=O)O

T2 sequence (P43220 24-463): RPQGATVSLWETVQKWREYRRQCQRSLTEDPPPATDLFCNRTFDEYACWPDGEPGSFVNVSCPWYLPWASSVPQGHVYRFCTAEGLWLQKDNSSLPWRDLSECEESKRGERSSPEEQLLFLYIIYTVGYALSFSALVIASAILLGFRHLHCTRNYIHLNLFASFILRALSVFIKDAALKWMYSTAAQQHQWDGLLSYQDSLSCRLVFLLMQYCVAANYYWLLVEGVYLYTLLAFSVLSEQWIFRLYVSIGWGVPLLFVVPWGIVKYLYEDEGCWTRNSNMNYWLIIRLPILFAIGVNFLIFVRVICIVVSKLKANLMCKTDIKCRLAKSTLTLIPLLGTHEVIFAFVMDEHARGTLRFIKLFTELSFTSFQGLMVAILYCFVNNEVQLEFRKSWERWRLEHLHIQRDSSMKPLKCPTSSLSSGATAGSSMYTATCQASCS

Turning to “H-Y[Aib]EGTFTSDYSI[Aib]LEKQAQ[Aib]AFVEWLIK([εLys-γGlu-γGlu-γGlu-γGlu-γGlu-C18 diacid])GGPESGASLRHYYNWLTRQRY-NH2 [Compound 152, Y-Aib-E-G-T-F-T-S-D-Y-S-I-Aib-L-E-K-Q-A-Q-Aib-A-F-V-E-W-L-I-K(1,3)-GGPESGASLRHYYNWLTRQRY-NH2.C18DA-gGlu-gGlu-gGlu-gGlu-gGlu-eLys(1,2)]”, the EC50 at hNPY2R (setting [1]) is 12.6 nM; on hGLP1R (setting [2]), 0.13 nM; on hGLP1R (setting [3]) it was 4.24 nM; at hGIPR (setting [4]), 0.4 nM; at hGIPR (setting [5]), 0.96 nM.
Take “H-Y[Aib]EGTFTSDYSI[Aib]LEKQAQ[Aib]AFVEWLIK([εLys-γGlu-γGlu-γGlu-γGlu-γGlu-γGlu-C20 diacid])GGPSSGASLRHYYNWLT[hArg]QR[dY]-NH2 [Compound 71, Y-Aib-E-G-T-F-T-S-D-Y-S-I-Aib-L-E-K-Q-A-Q-Aib-A-F-V-E-W-L-I-K(1,3)-G-G-P-S-S-G-A-S-L-R-H-Y-Y-N-W-L-T-hArg-Q-R-DTyr-NH2.C20DA-gGlu-gGlu-gGlu-gGlu-gGlu-gGlu-eLys(1,2)]”: the EC50 on hNPY2R (setting [1]) was greater than 100 nM; at hNPY2R (setting [6]) it was greater than 1000 nM; on hGLP1R (setting [2]), 0.14 nM; at hGLP1R (setting [3]), 1.13 nM; at hGIPR (setting [4]), 0.13 nM; on hGIPR (setting [5]) it was 0.64 nM.
Consider “H-Y[Aib]EGTFTSDYSI[Aib]LEKQAQ[Aib]EFVQWLIK([γGlu-γGlu-γGlu-γGlu-γGlu-γGlu-C20 diacid])GGPSEGASLRHYYNWLTRQRY-NH2 [Compound 185, Y-Aib-E-G-T-F-T-S-D-Y-S-I-Aib-L-E-K-Q-A-Q-Aib-E-F-V-Q-W-L-I-K(1,3)-GGPSEGASLRHYYNWLTRQRY-NH2.C20DA-gGlu-gGlu-gGlu-gGlu-gGlu-gGlu(1,2)]”, for which the EC50 on hNPY2R (setting [1]) was 13.3 nM; at hGLP1R (setting [2]), 0.4 nM; on hGIPR (setting [4]) it was 0.33 nM.
For the compound “H-Y[Aib]EGTFTSDYSI[Aib]LEGQAQ[Aib]AFVEWLIK([εLys-γGlu-γGlu-γGlu-γGlu-γGlu-γGlu-C20 diacid])GGPSSGASLRHYYNWLTRQRY-NH2 [Compound 99, Y-Aib-E-G-T-F-T-S-D-Y-S-I-Aib-L-E-G-Q-A-Q-Aib-A-F-V-E-W-L-I-K(1,3)-GGPSSGASLRHYYNWLTRQRY-NH2.C20DA-gGlu-gGlu-gGlu-gGlu-gGlu-gGlu-eLys(1,2)]”, the figures for the EC50 on hNPY2R (setting [1]), on hGLP1R (setting [2]) and at hGIPR (setting [4]) were 16.8 nM, 0.41 nM and 0.91 nM, respectively.
Turning to “H-Y[Aib]EGTFTSDYSI[Aib]LEKQAQ[Aib]EFVQWLIK([εLys-γGlu-γGlu-γGlu-γGlu-γGlu-γGlu-γGlu-C20 diacid])GGPSSGASLRHYYNWLTRQRY-NH2 [Compound 43, Y-Aib-E-G-T-F-T-S-D-Y-S-I-Aib-L-E-K-Q-A-Q-Aib-E-F-V-Q-W-L-I-K(1,3)-GGPSSGASLRHYYNWLTRQRY-NH2.C20DA-gGlu-gGlu-gGlu-gGlu-gGlu-gGlu-gGlu-eLys(1,2)]”, the EC50 at hNPY2R (setting [1]) worked out at 13.1 nM; on hNPY2R (setting [6]) it was 21.1 nM; on hGLP1R (setting [2]) it was 0.41 nM; at hGIPR (setting [4]) it was 0.64 nM; at hGIPR (setting [5]), 1.97 nM.
As for “H-Y[Aib]EGTFTSDYSI[Aib]LEKQAE[Aib]AFVEWLIK([γGlu-γGlu-γGlu-γGlu-C18 diacid])GGPSEGASLRHYYNWLTRQRY-NH2 [Compound 262, Y-Aib-E-G-T-F-T-S-D-Y-S-I-Aib-L-E-K-Q-A-E-Aib-A-F-V-E-W-L-I-K(1,3)-GGPSEGASLRHYYNWLTRQRY-NH2.C18DA-gGlu-gGlu-gGlu-gGlu(1,2)]”, the EC50 on hNPY2R (setting [1]) was found to be 13.2 nM; on hGLP1R (setting [2]), 0.13 nM; at hGIPR (setting [4]), 0.08 nM; at hGIPR (setting [5]), 0.53 nM.
Regarding “H-Y[Aib]EGTFTSDYSI[Aib]LEKQAQ[Aib]AFVEWLIK([εLys-γGlu-γGlu-γGlu-γGlu-γGlu-γGlu-C20 diacid])GGPSSYVSIRHYYNWLTRQRY-NH2 [Compound 9, Y-Aib-E-G-T-F-T-S-D-Y-S-I-Aib-L-E-K-Q-A-Q-Aib-A-F-V-E-W-L-I-K(1,3)-GGPSSYVSIRHYYNWLTRQRY-NH2.C20DA-gGlu-gGlu-gGlu-gGlu-gGlu-gGlu-eLys(1,2)]”, the EC50 on hNPY2R (setting [1]) turned out to be 15.2 nM; on hNPY2R (setting [6]) it was 18.9 nM; on hGLP1R (setting [2]), 0.46 nM; at hGIPR (setting [4]), 0.21 nM; at hGIPR (setting [5]), 2.03 nM.
The corresponding values for “H-Y[Aib]EGTFTSDYSI[Aib]LEKQAQ[Aib]AFVQWLIK([εLys-γGlu-γGlu-γGlu-γGlu-γGlu-γGlu-C20 diacid])GGPSEGASLRHYYNWLTRQ[NMeR]Y-NH2 [Compound 125, Y-Aib-E-G-T-F-T-S-D-Y-S-I-Aib-L-E-K-Q-A-Q-Aib-A-F-V-Q-W-L-I-K(1,3)-G-G-P-S-E-G-A-S-L-R-H-Y-Y-N-W-L-T-R-Q-NMeR-Y-NH2.C20DA-gGlu-gGlu-gGlu-gGlu-gGlu-gGlu-eLys(1,2)]” are 30.9 nM, 99.3 nM, 0.23 nM, 0.28 nM and 1.72 nM.
Consider `CC[C@H](C)[C@H](NC(=O)[C@H](CC(C)C)NC(=O)[C@H](Cc1c[nH]c2ccccc12)NC(=O)[C@H](CCC(=O)O)NC(=O)[C@@H](NC(=O)[C@H](Cc1ccccc1)NC(=O)[C@H](C)NC(=O)C(C)(C)NC(=O)[C@H](CCC(N)=O)NC(=O)[C@H](C)NC(=O)[C@H](CCC(N)=O)NC(=O)[C@H](CCCCN)NC(=O)[C@H](CCC(=O)O)NC(=O)[C@H](CC(C)C)NC(=O)C(C)(C)NC(=O)[C@@H](NC(=O)[C@H](CO)NC(=O)[C@H](Cc1ccc(O)cc1)NC(=O)[C@H](CC(=O)O)NC(=O)[C@H](CO)NC(=O)[C@@H](NC(=O)[C@H](Cc1ccccc1)NC(=O)[C@@H](NC(=O)CNC(=O)[C@H](CCC(=O)O)NC(=O)C(C)(C)NC(=O)[C@@H](N)Cc1ccc(O)cc1)[C@@H](C)O)[C@@H](C)O)[C@@H](C)CC)C(C)C)C(=O)N[C@@H](CCCCNC(=O)[C@@H](N)CCCCNC(=O)CC[C@H](NC(=O)CC[C@H](NC(=O)CC[C@H](NC(=O)CC[C@H](NC(=O)CC[C@H](NC(=O)CC[C@H](NC(=O)CCCCCCCCCCCCCCCCCCC(=O)O)C(=O)O)C(=O)O)C(=O)O)C(=O)O)C(=O)O)C(=O)O)C(=O)NCC(=O)NCC(=O)N1CCC[C@H]1C(=O)N[C@@H](CO)C(=O)N[C@@H](CO)C(=O)NCC(=O)N[C@@H](CCC(=O)O)C(=O)N[C@@H](CO)C(=O)N[C@@H](CC(C)C)C(=O)N[C@@H](CCCNC(=N)N)C(=O)N[C@@H](Cc1c[nH]cn1)C(=O)N[C@@H](Cc1ccc(O)cc1)C(=O)N[C@@H](Cc1ccc(O)cc1)C(=O)N[C@@H](CC(N)=O)C(=O)N[C@@H](Cc1c[nH]c2ccccc12)C(=O)N[C@@H](CC(C)C)C(=O)N[C@H](C(=O)N[C@@H](CCCNC(=N)N)C(=O)N[C@@H](CCC(N)=O)C(=O)N[C@@H](CCCNC(=N)N)C(=O)N[C@@H](Cc1ccc(O)cc1)C(N)=O)[C@@H](C)O` [Compound 127, Y-Aib-E-G-T-F-T-S-D-Y-S-I-Aib-L-E-K-Q-A-Q-Aib-A-F-V-E-W-L-I-K(1,3)-GGPSSGESLRHYYNWLTRQRY-NH2.C20DA-gGlu-gGlu-gGlu-gGlu-gGlu-gGlu-eLys(1,2)], for which the EC50 at hNPY2R (setting [1]) turned out to be 13.2 nM; at hGLP1R (setting [2]), 0.04 nM; at hGLP1R (setting [3]), 1.6 nM; at hGIPR (setting [4]), 0.05 nM; on hGIPR (setting [5]), 0.84 nM.
For the compound “H-Y[Aib]EGTFTSDYSI[Aib]LEKQAQ[Aib]EFVQWLIK([AEEA-AEEA-γGlu-γGlu-γGlu-γGlu-γGlu-C20 diacid])GGPSSGASLRHYYNWLTRQRY-NH2 [Compound 36, Y-Aib-E-G-T-F-T-S-D-Y-S-I-Aib-L-E-K-Q-A-Q-Aib-E-F-V-Q-W-L-I-K(1,3)-GGPSSGASLRHYYNWLTRQRY-NH2.C20DA-gGlu-gGlu-gGlu-gGlu-gGlu-OEG-OEG(1,2)]”, the EC50 on hNPY2R (setting [1]) came out at 8.03 nM; at hNPY2R (setting [6]), 26.8 nM; on hGLP1R (setting [2]) it was 0.28 nM; on hGIPR (setting [4]), 0.26 nM; at hGIPR (setting [5]) it was 1.57 nM.

Source of the values: patent publication US20240247080A1, “GLP1/GIP/NPY2 RECEPTOR TRIPLE AGONISTS” (Boehringer Ingelheim International GmbH, priority 2022, published 2024).
